Test results as given in PMC8636942, “Ab initio Designed Antimicrobial Peptides Against Gram-Negative Bacteria” (Frontiers in Microbiology, 2021).
pEC50: −log10 of the molar value. In brackets after ≈: the same amount, converted by molar mass. Like-named read-outs stand apart in the source and are kept apart here. No end group written: not given here.

Assays:
[1] = test system: E. coli ATCC 51659 (MDR, O157:H7); conditions: Mueller Hinton Broth; for Minimum inhibitory concentration (MIC): MDR strain, CLSI broth microdilution, 5 × 10^4 CFU/well, OD600, <10% of untreated control = clear, n = 3; for Minimum inhibitory concentration (MIC) / Antibacterial screening: growth inhibition / bactericidal activity: 16–20 h, 37°C; for Antibacterial screening: growth inhibition / bactericidal activity: 5 × 10^5 CFU/mL, OD600, n = 3
human red blood cells = experiment: Hemolysis assay; assay type: cell-based; conditions: 2% human RBCs (K2EDTA blood) in PBS, 1 h, 37°C
E. coli ATCC 51659 = assay type: cell-based, Escherichia coli
Protocol: (§1) The antimicrobial activity of the PHNX peptides (China Peptides custom synthesis) and LL-37 (AnaSpec 61302) against bacteria was determined as previously described ([Barksdale et al., 2016], [2017]). Briefly, 1 × 10^5 CFU per well of bacteria were incubated with different peptide concentrations (n = 3) in a 50-μl solution of 10 mM sodium phosphate buffer (3 h, 37°C). Serial dilutions were then prepared in 1X Dulbecco’s PBS and 8 μl of each dilution was spotted in triplicate on Tryptic Soy Agar plates, which were incubated (37°C, 24 h) and CFUs were counted ([Barksdale et al., 2016], [2017]). Bacterial survival at each peptide concentration was calculated based on the ratio of the number of colonies on each experimental plate and the average number of colonies observed for assay cultures lacking peptide. The peptide concentration required to kill 50% of the viable bacteria in the assay cultures (EC50) was determined by plotting percent survival as a function of the log of peptide concentration (log μg/ml) and fitting the data using GraphPad Prism 6 (GraphPad Software Inc., San Diego, CA, United States). For the purpose of graphing, samples that had no peptide (0 μg/ml) are plotted at 1 × 10^–7 μg/ml peptide. EC50 values were determined by fitting the data from the antimicrobial assays to a standard sigmoidal dose–response curve. […] Wells containing only 10 mM sodium phosphate buffer were used as sterility control.

S. aureus ATCC 33592 = assay type: cell-based, Staphylococcus aureus
Protocol: as §1

[2] = test system: E. coli ATCC 4157 (antibiotic susceptible); conditions: Mueller Hinton Broth; for Minimum inhibitory concentration (MIC): antibiotic susceptible strain, CLSI broth microdilution, 5 × 10^4 CFU/well, OD600, n = 3
[3] = test system: S. aureus ATCC 33592 (MDR, MRSA); conditions: Mueller Hinton Broth, 16–20 h, 37°C; for Minimum inhibitory concentration (MIC): MDR (MRSA) strain, CLSI broth microdilution, 5 × 10^4 CFU/well, OD600, n = 3; for Antibacterial screening: growth inhibition / bactericidal activity: peptide 100 μg/ml, 5 × 10^5 CFU/mL, OD600, n = 3
[4] = test system: S. aureus ATCC BAA-1718 (antibiotic susceptible); conditions: antibiotic susceptible strain; CLSI broth microdilution, Mueller Hinton Broth, 5 × 10^4 CFU/well, 16–20 h, 37°C, OD600; n = 3
[5] = peptide 100 μg/ml, OD540, DI water = full lysis, n = 3
[6] = same EC50 presented in micromolar units, 10 mM sodium phosphate buffer, 3 h, 37°C, read-out: EC50

Compound | Minimum inhibitory concentration (MIC) [1] [µg/mL] | pEC50 (E. coli ATCC 51659; ATCC 51659, 3 h) | Half maximal effective concentration (EC50) (E. coli ATCC 51659; ATCC 51659, 3 h) [µg/mL] | pEC50 (S. aureus ATCC 33592; ATCC 33592, 3 h) | other results
CC[C@H](C)[C@H](NC(=O)[C@H](CCCCN)NC(=O)[C@H](CCC(=O)O)NC(=O)[C@H](CCCCN)NC(=O)[C@H](CO)NC(=O)[C@H](CCCCN)NC(=O)[C@H](CCCNC(=N)N)NC(=O)[C@H](Cc1ccccc1)NC(=O)[C@H](Cc1ccccc1)NC(=O)[C@H](CC(=O)O)NC(=O)CNC(=O)[C@H](CC(C)C)NC(=O)[C@@H](N)CC(C)C)C(=O)NCC(=O)N[C@@H](CCCCN)C(=O)N[C@@H](CCC(=O)O)C(=O)N[C@@H](Cc1ccccc1)C(=O)N[C@@H](CCCCN)C(=O)N[C@@H](CCCNC(=N)N)C(=O)N[C@H](C(=O)N[C@H](C(=O)N[C@@H](CCC(N)=O)C(=O)N[C@@H](CCCNC(=N)N)C(=O)N[C@H](C(=O)N[C@@H](CCCCN)C(=O)N[C@@H](CC(=O)O)C(=O)N[C@@H](Cc1ccccc1)C(=O)N[C@@H](CC(C)C)C(=O)N[C@@H](CCCNC(=N)N)C(=O)N[C@@H](CC(N)=O)C(=O)N[C@@H](CC(C)C)C(=O)N[C@H](C(=O)N1CCC[C@H]1C(=O)N[C@@H](CCCNC(=N)N)C(=O)N[C@H](C(=O)N[C@@H](CCC(=O)O)C(=O)N[C@@H](CO)C(=O)O)[C@@H](C)O)C(C)C)[C@@H](C)CC)C(C)C)[C@@H](C)CC [LL-37] | 32 (≈ 7.12 µM) | – | – | – | Hemolysis (human red blood cells; peptide 1 μg/ml, OD540, n = 3): negligible hemolysis; Hemolysis (human red blood cells; [5]): approximately 40%
FGKLLKLGKGLGG [PHNX-2] | >100 | < 5.11 | – | – | pEC50 (S. aureus ATCC 33592; [6]): < 5.11
FGKLLKLGKGLKG [PHNX-3] | >100 | – | >10 | – | pEC50 (S. aureus ATCC 33592; [6]): < 5.13
FIGAIASYLKKFR [PHNX-6] | >100 | 5.76 | ≤ 10 | 5.28 | –
FLIKILKGGKGGK [PHNX-5] | >100 | 5.44 | ≤ 10 | < 5.13 | –
FLLKIVALLKKKLL [PHNX-1] | – | 7.10 | ≤ 10 | 6.85 | –
FLLKLGLGKKKLL [PHNX-4] | – | 5.70 | ≤ 10 | 5.48 | –
GLMDTVKNAAKNLAGQLLD KIKCKITG (disulfide) [PHNX-8, 28-residue synthetic AMP with a C-terminal rana box, designed by positional analysis on Dataset 2] | 64 | – | – | – | pEC50 (E. coli ATCC 51659; [6]): 7.70; Antibacterial screening: growth inhibition / bactericidal activity ([1]; peptide 100 μg/ml): showed activity; Antibacterial screening: bacterial survival ([1]; peptide 100 μg/ml, Figure 3C): ~0%; Minimum inhibitory concentration (MIC) ([2]; 16–20 h, 37°C): 32 µg/mL; Antibacterial screening: growth inhibition / bactericidal activity ([2]; peptide 100 μg/ml, 5 × 10^5 CFU/mL, 16–20 h, 37°C, OD600, n = 3): showed activity; Antibacterial screening: bacterial survival ([2]; peptide 100 μg/ml, Figure 3A): ~0%; Half maximal effective concentration (EC50) (S. aureus ATCC 33592; low salt: 10 mM sodium phosphate buffer, 1 × 10^5 CFU per well, 3 h, 37°C, CFU counting, sigmoidal fit, n = 3): 3.31 µg/mL; pEC50 (S. aureus ATCC 33592; [6]): 5.95
GVVDIIKGAGKKFAKGLAGKIANKK [PHNX-7] | – | 7.70 | ≤ 10 | 6.08 | –
KRFKKFFRKLKKSVKKRAKEFFKKPRVIGVSIPF [BF-CATH, reference compound] | 8 | – | – | – | Minimum inhibitory concentration (MIC) [3]: 64 µg/mL; Antibacterial screening: growth inhibition / bactericidal activity [3]: 100%; Antibacterial screening: growth inhibition / bactericidal activity ([1]; peptide 100 μg/ml): 100%; Minimum inhibitory concentration (MIC) ([2]; 16–20 h, 37°C): 4 µg/mL
VRLIVAVRIWRR-NH2 (C-terminus assumed) [IDR-1018] | ~16 | – | – | – | Minimum inhibitory concentration (MIC) [3]: ~16 µg/mL; Antibacterial screening: growth inhibition / bactericidal activity [3]: 100%; Antibacterial screening: growth inhibition / bactericidal activity ([1]; peptide 100 μg/ml): 100%; Hemolysis (human red blood cells; peptide 1 μg/ml, OD540, n = 3): negligible hemolysis; Hemolysis (human red blood cells; peptide 10 μg/ml, OD540, n = 3): ~10%; Hemolysis (human red blood cells; [5]): approximately 40%; Minimum inhibitory concentration (MIC) [4]: ~16 µg/mL
